Measured values: ChEMBL document CHEMBL2434896, “Carbonic anhydrase inhibitors. Synthesis of heterocyclic 4-substituted pyridine-3-sulfonamide derivatives and their inhibition of the human cytosolic isozymes I and II and transmembrane tumor-associated isozymes IX and XII” (Eur J Med Chem, 2013)
Activity calls are given as the source filed them. The rule behind the calls is not given here.

Legend:
[1] = tested on: NCI-H322M; assay: Growth inhibition of human NCI-H322M cells at 10 uM after 48 hrs by sulforhodamine B assay; assay type: functional
[2] = tested on: Malme-3M; assay: Growth inhibition of human MALME-3M cells at 10 uM after 48 hrs by sulforhodamine B assay; assay type: functional
[3] = tested on: MDA-MB-435; assay: Growth inhibition of human MDA-MB-435 cells at 10 uM after 48 hrs by sulforhodamine B assay; assay type: functional
[4] = tested on: TK-10; assay: Growth inhibition of human TK10 cells at 10 uM after 48 hrs by sulforhodamine B assay; assay type: functional
[5] = tested on: HCT-15; assay: Growth inhibition of human HCT15 cells at 10 uM after 48 hrs by sulforhodamine B assay; assay type: functional
[6] = tested on: UACC-257; assay: Growth inhibition of human UACC257 cells at 10 uM after 48 hrs by sulforhodamine B assay; assay type: functional
[7] = tested on: MDA-MB-231; assay: Growth inhibition of human MDA-MB-231 cells at 10 uM after 48 hrs by sulforhodamine B assay; assay type: functional
[8] = tested on: NCI-H522; assay: Growth inhibition of human NCI-H522 cells at 10 uM after 48 hrs by sulforhodamine B assay; assay type: functional
[9] = tested on: 786-0; assay: Growth inhibition of human 786-0 cells at 10 uM after 48 hrs by sulforhodamine B assay; assay type: functional
[10] = tested on: PC-3; assay: Growth inhibition of human PC3 cells at 10 uM after 48 hrs by sulforhodamine B assay; assay type: functional; conditions: PC-3, 48 h, read-out: GI
[11] = tested on: A549; assay: Growth inhibition of human A549/ATCC cells at 10 uM after 48 hrs by sulforhodamine B assay; assay type: functional; conditions: A549, 48 h, read-out: GI
[12] = tested on: SK-MEL-2; assay: Growth inhibition of human SK-MEL-2 cells at 10 uM after 48 hrs by sulforhodamine B assay; assay type: functional
[13] = tested on: HCT-116; assay: Growth inhibition of human HCT116 cells at 10 uM after 48 hrs by sulforhodamine B assay; assay type: functional
[14] = tested on: SNB-19; assay: Growth inhibition of human SNB19 cells at 10 uM after 48 hrs by sulforhodamine B assay; assay type: functional
[15] = tested on: SNB-75; assay: Growth inhibition of human SNB75 cells at 10 uM after 48 hrs by sulforhodamine B assay; assay type: functional; conditions: SNB-75, 48 h, read-out: GI
[16] = tested on: HOP-62; assay: Growth inhibition of human HOP62 cells at 10 uM after 48 hrs by sulforhodamine B assay; assay type: functional
[17] = tested on: A498; assay: Growth inhibition of human A498 cells at 10 uM after 48 hrs by sulforhodamine B assay; assay type: functional; conditions: A498, 48 h, read-out: GI
[18] = tested on: T47D; assay: Growth inhibition of human T47D cells at 10 uM after 48 hrs by sulforhodamine B assay; assay type: functional; conditions: read-out: GI
[19] = tested on: OVCAR-5; assay: Growth inhibition of human OVCAR5 cells at 10 uM after 48 hrs by sulforhodamine B assay; assay type: functional
[20] = tested on: SF-539; assay: Growth inhibition of human SF539 cells at 10 uM after 48 hrs by sulforhodamine B assay; assay type: functional
[21] = tested on: BT-549; assay: Growth inhibition of human BT549 cells at 10 uM after 48 hrs by sulforhodamine B assay; assay type: functional; conditions: BT-549, 48 h, read-out: GI
[22] = tested on: SK-OV-3; assay: Growth inhibition of human SKOV3 cells at 10 uM after 48 hrs by sulforhodamine B assay; assay type: functional
[23] = tested on: NCI-H226; assay: Growth inhibition of human NCI-H226 cells at 10 uM after 48 hrs by sulforhodamine B assay; assay type: functional
[24] = tested on: SK-MEL-28; assay: Growth inhibition of human SK-MEL-28 cells at 10 uM after 48 hrs by sulforhodamine B assay; assay type: functional, cell-based
[25] = tested on: MOLT-4; assay: Growth inhibition of human MOLT4 cells at 10 uM after 48 hrs by sulforhodamine B assay; assay type: functional
[26] = tested on: HCC 2998; assay: Growth inhibition of human HCC2998 cells at 10 uM after 48 hrs by sulforhodamine B assay; assay type: functional
[27] = tested on: SW-620; assay: Growth inhibition of human SW620 cells at 10 uM after 48 hrs by sulforhodamine B assay; assay type: functional
[28] = tested on: COLO 205; assay: Growth inhibition of human COLO205 cells at 10 uM after 48 hrs by sulforhodamine B assay; assay type: functional
[29] = tested on: UACC-62; assay: Growth inhibition of human UACC62 cells at 10 uM after 48 hrs by sulforhodamine B assay; assay type: functional
[30] = tested on: U-251; assay: Growth inhibition of human U251 cells at 10 uM after 48 hrs by sulforhodamine B assay; assay type: functional
[31] = tested on: NCI-H460; assay: Growth inhibition of human NCI-H460 cells at 10 uM after 48 hrs by sulforhodamine B assay; assay type: functional
[32] = tested on: HL-60(TB); assay: Growth inhibition of human HL-60(TB) cells at 10 uM after 48 hrs by sulforhodamine B assay; assay type: functional
[33] = tested on: MDA-MB-468; assay: Growth inhibition of human MDA-MB-468 cells at 10 uM after 48 hrs by sulforhodamine B assay; assay type: functional
[34] = tested on: NCI-H23; assay: Growth inhibition of human NCI-H23 cells at 10 uM after 48 hrs by sulforhodamine B assay; assay type: functional
[35] = tested on: KM12; assay: Growth inhibition of human KM12 cells at 10 uM after 48 hrs by sulforhodamine B assay; assay type: functional
[36] = tested on: LOX IMVI; assay: Growth inhibition of human LOXIMVI cells at 10 uM after 48 hrs by sulforhodamine B assay; assay type: functional; conditions: read-out: GI
[37] = tested on: SN12C; assay: Growth inhibition of human SN12C cells at 10 uM after 48 hrs by sulforhodamine B assay; assay type: functional
[38] = tested on: IGROV-1; assay: Growth inhibition of human IGROV1 cells at 10 uM after 48 hrs by sulforhodamine B assay; assay type: functional
[39] = tested on: SF-295; assay: Growth inhibition of human SF295 cells at 10 uM after 48 hrs by sulforhodamine B assay; assay type: functional
[40] = tested on: RPMI-8226; assay: Growth inhibition of human RPMI8226 cells at 10 uM after 48 hrs by sulforhodamine B assay; assay type: functional
[41] = tested on: DU-145; assay: Growth inhibition of human DU145 cells at 10 uM after 48 hrs by sulforhodamine B assay; assay type: functional
[42] = tested on: SR; assay: Growth inhibition of human SR cells at 10 uM after 48 hrs by sulforhodamine B assay; assay type: functional; conditions: read-out: GI
[43] = tested on: SK-MEL-5; assay: Growth inhibition of human SK-MEL-5 cells at 10 uM after 48 hrs by sulforhodamine B assay; assay type: functional
[44] = tested on: CAKI-1; assay: Growth inhibition of human CAKI-1 cells at 10 uM after 48 hrs by sulforhodamine B assay; assay type: functional
[45] = tested on: MCF7; assay: Growth inhibition of human MCF7 cells at 10 uM after 48 hrs by sulforhodamine B assay; assay type: functional

For `NS(=O)(=O)c1cnccc1N1CCN(c2ccccn2)CC1`, the “growth inhibition (GI)” value [1] was “inactive”, the inhibition of growth at 10 µM ([2]; read-out: GI) was 8% and the inhibition of growth at 10 µM ([3]; MDA-MB-435, 48 h, read-out: GI) was 2%. For the same compound, the “growth inhibition (GI)” value [4] was “inactive”, the “growth inhibition (GI)” value [5] was “inactive” and the inhibition of growth at 10 µM ([6]; UACC-257, 48 h, read-out: GI) was 2%. For the same compound, the “growth inhibition (GI)” value [7] was “inactive”, the “growth inhibition (GI)” value [8] was “inactive” and the inhibition of growth at 10 µM ([9]; 786-0, 48 h, read-out: GI) was 2%. The inhibition of growth at 10 µM [10] was 1%, the inhibition of growth at 10 µM [11] was 2% and the inhibition of growth at 10 µM ([12]; SK-MEL-2, 48 h, read-out: GI) was 1%. The inhibition of growth at 10 µM ([13]; HCT-116, 48 h, read-out: GI) was 1%, the “growth inhibition (GI)” value [14] was “inactive” and the inhibition of growth at 10 µM [15] was 12%. For the same compound, the “growth inhibition (GI)” value [16] was “inactive”, the inhibition of growth at 10 µM [17] was 24% and the inhibition of growth at 10 µM [18] was 8%. For the same compound, the “growth inhibition (GI)” value [19] was “inactive”, the “growth inhibition (GI)” value [20] was “inactive” and the inhibition of growth at 10 µM [21] was 6%. The “growth inhibition (GI)” value [22] was “inactive”, the inhibition of growth at 10 µM ([23]; NCI-H226, 48 h, read-out: GI) was 5% and the “growth inhibition (GI)” value [24] was “inactive”. For the same compound, the “growth inhibition (GI)” value [25] was “inactive”, the “growth inhibition (GI)” value [26] was “inactive” and the inhibition of growth at 10 µM ([27]; SW-620, 48 h, read-out: GI) was 1%. The “growth inhibition (GI)” value [28] was “inactive”, the “growth inhibition (GI)” value [29] was “inactive” and the inhibition of growth at 10 µM ([30]; U-251, 48 h, read-out: GI) was 6%. For the same compound, the “growth inhibition (GI)” value [31] was “inactive”, the “growth inhibition (GI)” value [32] was “inactive” and the inhibition of growth at 10 µM ([33]; MDA-MB-468, 48 h, read-out: GI) was 1%. The inhibition of growth at 10 µM ([34]; NCI-H23, 48 h, read-out: GI) was 4%, the “growth inhibition (GI)” value [35] was “inactive” and the inhibition of growth at 10 µM [36] was 9%. The inhibition of growth at 10 µM ([37]; read-out: GI) was 4%, the “growth inhibition (GI)” value [38] was “inactive” and the “growth inhibition (GI)” value [39] was “inactive”. It also gave an inhibition of growth at 10 µM ([40]; RPMI-8226, 48 h, read-out: GI) of 5%, an inhibition of growth at 10 µM ([41]; DU-145, 48 h, read-out: GI) of 8% and an inhibition of growth at 10 µM [42] of 12%. For the same compound, the “growth inhibition (GI)” value [43] was “inactive”, the inhibition of growth at 10 µM ([44]; CAKI-1, 48 h, read-out: GI) was 10% and the inhibition of growth at 10 µM ([45]; MCF7, 48 h, read-out: GI) was 3%.
For `NS(=O)(=O)c1cnccc1N1CCN(Cc2ccc3c(c2)OCO3)CC1`, the “growth inhibition (GI)” value [1] was “inactive”, the “growth inhibition (GI)” value [2] was “inactive” and the “growth inhibition (GI)” value [3] was “inactive”. For the same compound, the “growth inhibition (GI)” value [4] was “inactive”, the inhibition of growth at 10 µM ([5]; HCT-15, 48 h, read-out: GI) was 1% and the “growth inhibition (GI)” value [6] was “inactive”. The “growth inhibition (GI)” value [7] was “inactive”, the inhibition of growth at 10 µM ([8]; NCI-H522, 48 h, read-out: GI) was 2% and the “growth inhibition (GI)” value [9] was “inactive”. The inhibition of growth at 10 µM [10] was 1%, the inhibition of growth at 10 µM [11] was 2% and the “growth inhibition (GI)” value [12] was “inactive”. The “growth inhibition (GI)” value [13] was “inactive”, the inhibition of growth at 10 µM ([14]; SNB-19, 48 h, read-out: GI) was 3% and the inhibition of growth at 10 µM [15] was 9%. It also gave an inhibition of growth at 10 µM ([16]; HOP-62, 48 h, read-out: GI) of 5%, an inhibition of growth at 10 µM [17] of 10% and an inhibition of growth at 10 µM [18] of 6%. For the same compound, the inhibition of growth at 10 µM ([19]; OVCAR-5, 48 h, read-out: GI) was 2%, the inhibition of growth at 10 µM ([20]; SF-539, 48 h, read-out: GI) was 2% and the inhibition of growth at 10 µM [21] was 7%. For the same compound, the “growth inhibition (GI)” value [22] was “inactive”, the “growth inhibition (GI)” value [23] was “inactive” and the “growth inhibition (GI)” value [24] was “inactive”. The inhibition of growth at 10 µM ([25]; MOLT-4, 48 h, read-out: GI) was 5%, the “growth inhibition (GI)” value [26] was “inactive” and the “growth inhibition (GI)” value [27] was “inactive”. For the same compound, the “growth inhibition (GI)” value [28] was “inactive”, the “growth inhibition (GI)” value [29] was “inactive” and the “growth inhibition (GI)” value [30] was “inactive”. For the same compound, the “growth inhibition (GI)” value [31] was “inactive”, the inhibition of growth at 10 µM ([32]; HL-60, 48 h, read-out: GI) was 7% and the “growth inhibition (GI)” value [33] was “inactive”. The “growth inhibition (GI)” value [34] was “inactive”, the inhibition of growth at 10 µM ([35]; KM12, 48 h, read-out: GI) was 1% and the inhibition of growth at 10 µM [36] was 8%. The “growth inhibition (GI)” value [37] was “inactive”, the “growth inhibition (GI)” value [38] was “inactive” and the “growth inhibition (GI)” value [39] was “inactive”. The “growth inhibition (GI)” value [40] was “inactive”, the “growth inhibition (GI)” value [41] was “inactive” and the inhibition of growth at 10 µM [42] was 9%. The “growth inhibition (GI)” value [43] was “inactive”, the “growth inhibition (GI)” value [44] was “inactive” and the “growth inhibition (GI)” value [45] was “inactive”.
